# Reference: article PMC8161026, “Synthesis and Anticancer Activity Evaluation of 5-[2-Chloro-3-(4-nitrophenyl)-2-propenylidene]-4-thiazolidinones” (Molecules, 2021)
# How the values were obtained:
# RPMI-8226 [1] = conditions: RPMI-8226 (Leukemia), 48 h, SRB
# [2] = system: Non-Small Cell Lung Cancer subpanel; assay: cells
# Description: (§1) At the first stage of biological activity study, the antitumor activity screening of the selected compounds 2b, 2c, 2f, 2h, and 2j was performed according to the NCI DTP (USA) standard protocol at the concentrations ranging from 10^−4 to 10^−8 M toward 60 tumor cell lines. The percentage of growth was evaluated spectrophotometrically versus controls not treated with test agents after 48 h exposure and using SRB protein assay to estimate cell viability or growth. Dose–response parameters were calculated for each cell line: GI50—molar concentration of the compound that inhibits 50% net cell growth; TGI—molar concentration of the compound leading to the total inhibition; and LC50—molar concentration of the compound leading to 50% net cell death. Furthermore, mean graph midpoints (MG_MID) were calculated for each of the parameters, giving an average activity parameter over all cell lines for the tested compound. For the MG_MID calculation, insensitive cell lines were included with the highest concentration tested.
# (§2) The selectivity index (SI) obtained by dividing the full panel MG-MID (mM) of the tested compound by their individual subpanel MG-MID (mM) was considered as a measure of selectivity of anticancer activity (Table 3).
# (§3) Primary anticancer assay was performed on a panel of approximately sixty human tumor cell lines derived from nine neoplastic diseases, in accordance with the protocol of the Drug Evaluation Branch, National Cancer Institute, Bethesda. Tested compounds were added to the culture at a single concentration (10^−5 M) and the cultures were incubated for 48 h. End point determinations were made with a protein binding dye, sulforhodamine B (SRB). […] The percentage growth was evaluated spectrophotometrically versus controls not treated with test agents.
# (§4) Dose–response parameters (GI50, TGI, LC50) were calculated for each compound. […] The drug concentration resulting in total growth inhibition (TGI) was calculated from Ti = Tz. The LC50 (concentration of drug resulting in a 50% reduction in the measured protein at the end of the drug treatment as compared to that at the beginning) indicating a net loss of cells following treatment was calculated from [(Ti − Tz)/Tz] × 100 = −50 (2). Values were calculated for each of these parameters if the level of activity was reached; however, if the effect was not reached or was excessive, the value for that parameter was expressed as more or less than the maximum or minimum concentration tested.
# Prostate Cancer subpanel = assay: cells
# Description: as §1, §2, §3, §4
# Renal Cancer subpanel = assay: cells
# Description: as §1, §2, §3, §4
# Leukemia subpanel = assay: cells
# Description: as §1, §2, §3, §4
# Breast Cancer subpanel = assay: cells
# Description: as §1, §2, §3, §4
# Ovarian Cancer subpanel = assay: cells
# Description: as §1, §2, §3, §4
# Colon Cancer subpanel = assay: cells
# Description: as §1, §2, §3, §4
# MDA-MB-435 = assay: NCI DTP 60 cell line screen, SRB
# A498 = assay: NCI DTP 60 cell line screen, SRB
# RPMI-8226 [3] = assay: cells; conditions: Homo sapiens, RPMI-8226, 48 h
# K-562 = assay: cells; conditions: Homo sapiens, K562, 48 h
# HCT-116 = HCT-116 (Colon Cancer), 48 h, SRB
# HCT-15 = assay: NCI DTP 60 cell line screen, SRB
# NCI-H460 = NCI-H460 (Non-Small Cell Lung Cancer), 48 h, SRB
# OVCAR-8 = assay: NCI DTP 60 cell line screen, SRB
# TK-10 = assay: NCI DTP 60 cell line screen, SRB
# SNB-19 = assay: NCI DTP 60 cell line screen, SRB
# EKVX = EKVX (Non-Small Cell Lung Cancer), 48 h, SRB
# [4] = Homo sapiens, read-out: MG_MID, GI50
# [5] = Homo sapiens, read-out: MG_MID, LC50
# [6] = full panel MG_MID / Non-Small Cell Lung Cancer subpanel MG_MID
# [7] = full panel MG_MID / Prostate Cancer subpanel MG_MID
# [8] = full panel MG_MID / Renal Cancer subpanel MG_MID
# [9] = full panel MG_MID / Leukemia subpanel MG_MID
# [10] = full panel MG_MID / Breast Cancer subpanel MG_MID
# [11] = full panel MG_MID / Ovarian Cancer subpanel MG_MID
# [12] = full panel MG_MID / Colon Cancer subpanel MG_MID
structure (smiles),measurement,setting,value
"O=C1NC(=S)S/C1=C\C(Cl)=C\c1ccc([N+](=O)[O-])cc1 [Compound 2b, 5-[(Z,2Z)-2-Chloro-3-(4-nitrophenyl)-2-propenylidene]-2-thioxo-4-thiazolidinone]",TGI,RPMI-8226 [1],20.6 µM
same,GI50,[2]; [4],3.79 µM
same,CC50,[2]; [5],48.6 µM
same,"MG_MID, TGI",[2]; Non-Small Cell Lung Cancer panel mean,29.7 µM
same,"SI (selectivity index), GI50",[2]; [6],1.26
same,"SI (selectivity index), LC50",[2]; [6],0.90
same,"SI (selectivity index), TGI",[2]; [6],0.68
same,GI50,Prostate Cancer subpanel; [4],5.89 µM
same,CC50,Prostate Cancer subpanel; [5],39.2 µM
same,"MG_MID, TGI",Prostate Cancer subpanel; Prostate Cancer panel mean,32.1 µM
same,"SI (selectivity index), GI50",Prostate Cancer subpanel; [7],0.81
same,"SI (selectivity index), LC50",Prostate Cancer subpanel; [7],1.11
same,"SI (selectivity index), TGI",Prostate Cancer subpanel; [7],0.63
same,GI50,Renal Cancer subpanel; [4],6.23 µM
same,CC50,Renal Cancer subpanel; [5],42.9 µM
same,"MG_MID, TGI",Renal Cancer subpanel; Renal Cancer panel mean,18.7 µM
same,"SI (selectivity index), GI50",Renal Cancer subpanel; [8],0.77
same,"SI (selectivity index), LC50",Renal Cancer subpanel; [8],1.01
same,"SI (selectivity index), TGI",Renal Cancer subpanel; [8],1.09
same,GI50,Leukemia subpanel; [4],1.51 µM
same,CC50,Leukemia subpanel; [5],> 50 µM
same,"MG_MID, TGI",Leukemia subpanel; Leukemia panel mean,20.2 µM
same,"SI (selectivity index), GI50",Leukemia subpanel; [9],3.17
same,"SI (selectivity index), LC50",Leukemia subpanel; [9],<0.87
same,"SI (selectivity index), TGI",Leukemia subpanel; [9],1.00
same,"MG_MID, TGI",Breast Cancer subpanel; Breast Cancer panel mean,28.4 µM
same,GI50,Breast Cancer subpanel; [4],4.38 µM
same,CC50,Breast Cancer subpanel; [5],46.7 µM
same,"SI (selectivity index), GI50",Breast Cancer subpanel; [10],1.09
same,"SI (selectivity index), LC50",Breast Cancer subpanel; [10],0.93
same,"SI (selectivity index), TGI",Breast Cancer subpanel; [10],0.71
same,GI50,Ovarian Cancer subpanel; [4],6.68 µM
same,CC50,Ovarian Cancer subpanel; [5],42.8 µM
same,"MG_MID, TGI",Ovarian Cancer subpanel; Ovarian Cancer panel mean,21.0 µM
same,"SI (selectivity index), GI50",Ovarian Cancer subpanel; [11],0.72
same,"SI (selectivity index), LC50",Ovarian Cancer subpanel; [11],1.02
same,"SI (selectivity index), TGI",Ovarian Cancer subpanel; [11],0.97
same,"MG_MID, TGI",Colon Cancer subpanel; Colon Cancer panel mean,11.5 µM
same,GI50,Colon Cancer subpanel; [4],3.27 µM
same,CC50,Colon Cancer subpanel; [5],35.4 µM
same,"SI (selectivity index), GI50",Colon Cancer subpanel; [12],1.46
same,"SI (selectivity index), LC50",Colon Cancer subpanel; [12],1.23
same,"SI (selectivity index), TGI",Colon Cancer subpanel; [12],1.77
same,GI50,"MDA-MB-435; Homo sapiens, MDA-MB-435, 48 h",8.57 µM
same,CC50,"MDA-MB-435; Homo sapiens, MDA-MB-435, 48 h, read-out: LC50",> 50 µM
same,TGI,"MDA-MB-435; MDA-MB-435 (Breast Cancer), 48 h, SRB",47.9 µM
same,TGI,"A498; A498 (Renal Cancer), 48 h, SRB",12.2 µM
same,GI50,"A498; Homo sapiens, A498, 48 h",4.57 µM
same,CC50,"A498; Homo sapiens, A498, 48 h, read-out: LC50",30.9 µM
same,GI50,RPMI-8226 [3],1.54 µM
same,CC50,RPMI-8226 [3]; read-out: LC50,> 50 µM
same,GI50,K-562,1.44 µM
same,CC50,K-562; read-out: LC50,> 50 µM
same,TGI,HCT-116,11.0 µM
same,TGI,"HCT-15; HCT-15 (Colon Cancer), 48 h, SRB",8.81 µM
same,GI50,"HCT-15; Homo sapiens, HCT-15, 48 h",1.79 µM
same,CC50,"HCT-15; Homo sapiens, HCT-15, 48 h, read-out: LC50",25.4 µM
same,TGI,NCI-H460,18.6 µM
same,GI50,"OVCAR-8; Homo sapiens, OVCAR-8, 48 h",5.08 µM
same,CC50,"OVCAR-8; Homo sapiens, OVCAR-8, 48 h, read-out: LC50",47.9 µM
same,TGI,"OVCAR-8; OVCAR-8 (Ovarian Cancer), 48 h, SRB",15.6 µM
same,GI50,"TK-10; Homo sapiens, TK-10, 48 h",10.6 µM
same,CC50,"TK-10; Homo sapiens, TK-10, 48 h, read-out: LC50",> 50 µM
same,TGI,"TK-10; TK-10 (Renal Cancer), 48 h, SRB",23.2 µM
same,GI50,"SNB-19; Homo sapiens, SNB-19, 48 h",8.1 µM
same,CC50,"SNB-19; Homo sapiens, SNB-19, 48 h, read-out: LC50",> 50 µM
same,TGI,"SNB-19; SNB-19 (CNS Cancer), 48 h, SRB",21.4 µM
same,TGI,EKVX,> 50 µM
